The source of these data is ChEMBL document CHEMBL5096143, “Current status in the discovery of dual BET/HDAC inhibitors” (Bioorg Med Chem Lett, 2021).

Bounds are passed on as bounds.

As usually defined, the IC50 is the concentration that gives 50% inhibition.

For one test, the target named is Histone deacetylase 1 (Homo sapiens, UniProt Q13547). Description: Inhibition of HDAC1 (unknown origin).
Test [1] addresses T1, Bromodomain-containing protein 4 (Homo sapiens, UniProt O60885). Description: Inhibition of BRD4-BD1 (unknown origin).
In test [2] the target is T1, Bromodomain-containing protein 4. Nature of the test: Inhibition of GST-tagged BRD4 (unknown origin) by HTRF assay. On the technique in general: TR-FRET usually uses a lanthanide donor and a delayed reading to cut background.
In test [3] the target is T2, Bromodomain testis-specific protein (Homo sapiens, UniProt Q58F21). Nature of the test: Inhibition of recombinant BRDT-BD1 (unknown origin) by TR-FRET assay.
In test [4] the target is T3, Bromodomain-containing protein 2 (Homo sapiens, UniProt P25440). Nature of the test: Inhibition of recombinant BRD2-BD2 (unknown origin) by TR-FRET assay.
The target of test [5] is T4, Bromodomain-containing protein 3 (Homo sapiens, UniProt Q15059). Nature of the test: Inhibition of recombinant BRD3-BD1 (unknown origin) by TR-FRET assay.
Test [6] addresses T3, Bromodomain-containing protein 2. Description: Inhibition of recombinant BRD2-BD1 (unknown origin) by TR-FRET assay.
Test [7] addresses T2, Bromodomain testis-specific protein. Nature of the test: Inhibition of recombinant BRDT-BD2 (unknown origin) by TR-FRET assay.
The target of test [8] is T4, Bromodomain-containing protein 3. Description: Inhibition of recombinant BRD3-BD2 (unknown origin) by TR-FRET assay.
Another test has as its target Histone deacetylase 3 (Homo sapiens, UniProt O15379). Nature of the test: Inhibition of human HDAC3 using Boc-Lys(Ac)-AMC as substrate by fluorescence based assay.
The target of test [9] is T1, Bromodomain-containing protein 4. Description: Inhibition of BRD4-BD2 (unknown origin).
For test [10] the target is unchanged.
Description: Inhibition of BRD4 (unknown origin) by ELISA
Another test addresses Histone deacetylase. Description: Inhibition of HDAC (unknown origin) by ELISA. In kind it is protein assay, Homo sapiens.
A further test deals with U-937. Nature of the test: Cytotoxicity against human U-937 cells assessed as cell viability at 3 uM by MTT assay relative to control. In kind it is functional. The following applies: read-out: Activity. Background: Tetrazolium dyes change colour on reduction, which living cells bring about.

Chain of Histone deacetylase 1 (Q13547 whole entry): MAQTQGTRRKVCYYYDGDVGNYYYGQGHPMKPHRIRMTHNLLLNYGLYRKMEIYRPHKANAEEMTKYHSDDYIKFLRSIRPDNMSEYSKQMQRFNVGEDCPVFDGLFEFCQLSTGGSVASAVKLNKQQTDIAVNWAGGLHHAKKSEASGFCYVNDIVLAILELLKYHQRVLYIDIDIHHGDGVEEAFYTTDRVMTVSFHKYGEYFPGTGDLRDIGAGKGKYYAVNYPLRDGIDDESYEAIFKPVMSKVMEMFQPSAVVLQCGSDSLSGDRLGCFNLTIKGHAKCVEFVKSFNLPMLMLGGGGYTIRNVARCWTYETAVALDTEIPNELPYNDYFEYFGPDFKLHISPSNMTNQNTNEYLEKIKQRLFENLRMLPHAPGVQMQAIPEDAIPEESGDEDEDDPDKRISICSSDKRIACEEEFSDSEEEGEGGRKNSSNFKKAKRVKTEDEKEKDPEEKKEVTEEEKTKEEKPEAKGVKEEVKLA
T4 sequence (Q15059 whole entry): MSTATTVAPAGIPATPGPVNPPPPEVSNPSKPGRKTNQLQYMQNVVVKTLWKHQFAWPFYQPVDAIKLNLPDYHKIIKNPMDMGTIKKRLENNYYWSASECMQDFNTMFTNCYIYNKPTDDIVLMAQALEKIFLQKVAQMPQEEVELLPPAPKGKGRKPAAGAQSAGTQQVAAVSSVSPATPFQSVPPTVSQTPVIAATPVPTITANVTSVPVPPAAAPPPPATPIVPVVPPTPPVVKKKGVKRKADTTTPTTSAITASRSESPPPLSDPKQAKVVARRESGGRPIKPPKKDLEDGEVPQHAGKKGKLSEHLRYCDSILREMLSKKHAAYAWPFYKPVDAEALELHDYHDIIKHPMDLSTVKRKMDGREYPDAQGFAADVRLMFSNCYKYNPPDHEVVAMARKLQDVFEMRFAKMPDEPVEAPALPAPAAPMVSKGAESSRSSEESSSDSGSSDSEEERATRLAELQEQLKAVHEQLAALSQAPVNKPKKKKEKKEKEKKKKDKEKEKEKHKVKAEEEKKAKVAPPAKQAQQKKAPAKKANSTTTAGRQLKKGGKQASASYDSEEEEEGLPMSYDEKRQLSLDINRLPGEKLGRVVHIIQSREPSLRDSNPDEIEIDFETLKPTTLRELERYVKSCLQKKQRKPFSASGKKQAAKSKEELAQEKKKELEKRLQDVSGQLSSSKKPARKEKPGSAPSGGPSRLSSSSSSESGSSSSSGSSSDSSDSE
T3 sequence (P25440 whole entry): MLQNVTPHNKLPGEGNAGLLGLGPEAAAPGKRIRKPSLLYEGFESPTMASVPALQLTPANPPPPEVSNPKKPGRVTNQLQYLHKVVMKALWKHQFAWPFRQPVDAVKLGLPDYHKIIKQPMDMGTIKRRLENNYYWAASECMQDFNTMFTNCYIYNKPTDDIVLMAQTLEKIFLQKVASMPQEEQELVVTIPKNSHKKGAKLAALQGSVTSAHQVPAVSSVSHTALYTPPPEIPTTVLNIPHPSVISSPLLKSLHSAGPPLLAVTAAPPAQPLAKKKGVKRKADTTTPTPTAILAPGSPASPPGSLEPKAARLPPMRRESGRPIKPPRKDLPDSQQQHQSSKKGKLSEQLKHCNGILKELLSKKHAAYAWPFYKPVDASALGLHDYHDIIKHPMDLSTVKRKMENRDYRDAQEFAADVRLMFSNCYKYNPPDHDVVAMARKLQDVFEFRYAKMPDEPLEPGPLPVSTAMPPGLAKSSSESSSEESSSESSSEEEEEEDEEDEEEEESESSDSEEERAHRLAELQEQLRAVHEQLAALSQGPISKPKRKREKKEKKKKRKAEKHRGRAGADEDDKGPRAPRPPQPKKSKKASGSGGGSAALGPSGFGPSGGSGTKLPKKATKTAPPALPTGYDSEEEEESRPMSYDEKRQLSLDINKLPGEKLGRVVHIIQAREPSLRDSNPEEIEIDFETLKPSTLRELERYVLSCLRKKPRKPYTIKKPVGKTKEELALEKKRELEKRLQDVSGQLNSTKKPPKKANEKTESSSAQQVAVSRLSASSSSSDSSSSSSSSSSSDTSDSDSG
Chain of Histone deacetylase 3 (O15379 whole entry): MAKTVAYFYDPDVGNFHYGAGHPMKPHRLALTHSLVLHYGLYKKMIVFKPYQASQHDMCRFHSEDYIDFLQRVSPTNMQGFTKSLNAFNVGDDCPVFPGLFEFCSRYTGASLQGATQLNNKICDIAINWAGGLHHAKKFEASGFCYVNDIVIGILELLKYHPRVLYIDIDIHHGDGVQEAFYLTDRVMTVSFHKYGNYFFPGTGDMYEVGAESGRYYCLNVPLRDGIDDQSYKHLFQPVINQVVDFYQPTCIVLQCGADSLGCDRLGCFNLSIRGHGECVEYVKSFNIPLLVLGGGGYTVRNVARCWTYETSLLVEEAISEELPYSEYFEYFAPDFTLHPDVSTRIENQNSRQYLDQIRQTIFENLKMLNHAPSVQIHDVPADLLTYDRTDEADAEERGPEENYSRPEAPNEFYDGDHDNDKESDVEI

For `CC(=O)N1c2ccc(-c3ccc(NC(=O)CCCCCCC(=O)NO)cc3)cc2[C@H](NC(=O)OC(C)C)C[C@@H]1C`, the half-maximal inhibitory concentration (IC50) against Histone deacetylase 1 came to 50 nM; in test [1], 250 nM.
The compound `COC(c1c(F)cccc1Cl)c1c[nH]c2ncc(-c3c(C)noc3C)cc12` (stereo not drawn) yielded an IC50 in test [2] of less than 1000 nM.
For `Cc1sc2c(c1C)C(c1ccc(Cl)cc1)=N[C@@H](CC(=O)Nc1ccc(C(=O)NO)cc1)c1nnc(C)n1-2`, the IC50 in test [3], in test [4], in test [5], in test [6], in test [7] and in test [8] was 11 nM in each case.
Compound `O=C(CCCCCCn1cc(Cc2ccccc2)c2ccccc21)NO` registered an IC50 against Histone deacetylase 3 of 60 nM.
Take `Cc1sc2c(c1C)C(c1ccc(Cl)cc1)=N[C@@H](CC(=O)NCc1ccc(/C=C/C(=O)NO)cc1)c1nnc(C)n1-2`: the half-maximal inhibitory concentration (IC50) in [9] was 1580 nM; against Histone deacetylase 1 it was greater than 20000 nM; in test [1], 1350 nM.
For `Cc1sc2c(c1C)C(c1ccc(Cl)cc1)=N[C@@H](CC(=O)Nc1ccc(NC(=O)CCCCCCC(=O)NO)cc1)c1nnc(C)n1-2` the same measures were 11000 nM, 1110 nM and 4530 nM.
`Cc1sc2c(c1C)C(c1ccc(Cl)cc1)=N[C@@H](CC(=O)Nc1ccc(C(=O)Nc3ccccc3N)cc1)c1nnc(C)n1-2`: the results for the IC50 (in test [9]; against Histone deacetylase 1; in [1]) were 74 nM, 290 nM and 720 nM, respectively.
As to `Cc1sc2c(c1C)C(c1ccc(Cl)cc1)=N[C@@H](CC(=O)NCCCC(=O)Nc1ccccc1N)c1nnc(C)n1-2`, the IC50 is 29.6 nM in [10] and 31.24 nM against Histone deacetylase. In the test with U-937, the viability at 3 µM stood at 16.1%.
Compound `O=C(CCCCCCC(=O)Nc1ccccc1)NO` [VORINOSTAT] returned an IC50 in test [10] of 43.1 nM.
